Usually viability stands for a read-out of living cells in per cent, often relative to untreated cells.

The nature of the data set: in vitro. Conditions: human, hela cells, % viability.
Take `CN(Cc1ccccc1)C(=O)c1c[nH]nc1C1CCCN(CC2CCCCC2)C1` (stereo not drawn) [CBK286489]: the viability at 28.5 h, 10 µM was 94.4%.

Take `O=C(N[C@H]1CCN2C(=O)N(c3cccc(C(F)(F)F)c3)C(=O)[C@@H]2C1)c1ccncc1` [CBK289552]: the viability at 28.5 h, 10 µM came out at 98.7%.

On to `CCc1c(C)sc(NC(=O)C2C3C=CC(C3)C2C(=O)O)c1C(N)=O` (stereo not drawn) [CBK265433], for which the viability at 28.5 h, 10 µM amounted to 97.9%.

Consider `COc1cc([C@@]23CC[C@@H](NC(=O)Nc4cccc(C(F)(F)F)c4F)C[C@@H]2N(C)CC3)ccc1C#N` [CBK078562], for which the viability at 28.5 h, 10 µM was determined as 106%.

`Cn1cc(C2CCCCCN2C(=O)c2ccc(F)cc2)cn1` (stereo not drawn) [CBK284913]: the viability at 28.5 h, 10 µM stood at 76.8%.

On to `Cc1ccc(Cl)cc1N1CCN(C(=O)C2C3C=CC(C3)C2C(=O)O)CC1` (stereo not drawn) [CBK287025], for which the viability at 28.5 h, 10 µM came to 117%.

As for `CNCc1cn(C[C@H]2CC3CCN2C[C@@H]3C(=O)N2CCCC2)nn1` (stereo partly drawn) [CBK289087], the viability at 28.5 h, 10 µM is 104%.

Regarding `Cc1ccc(-c2nnc(CN3C(=O)C4(CC(=O)N(C)C4=O)c4cc(F)ccc43)o2)cc1` (stereo not drawn) [CBK075453], the viability at 28.5 h, 10 µM stood at 110%.

Consider `CC(=O)c1cccc(NC(=O)C2CCCN(S(=O)(=O)c3ccc(Cl)cc3)C2)c1` (stereo not drawn) [CBK266847], for which the viability at 28.5 h, 10 µM came out at 102%.

Regarding `Cc1cc(C)c2nc(-c3ccccn3)cc(C(=O)Nc3ccc(S(=O)(=O)Nc4cc(C)on4)cc3)c2c1` [CBK267779], the viability at 28.5 h, 10 µM was 105%.

Take `COc1cccc(CNC(=O)NC(=O)C2CCN(C)CC2)c1` [CBK034828]: the viability at 28.5 h, 10 µM came to 91.9%.

Regarding `CC1CCN(S(=O)(=O)c2ccc(S(=O)(=O)Nc3ncnn3C)cc2)CC1` [CBK306470], the viability at 28.5 h, 10 µM was 92.3%.

`C[C@]12CN(Cc3cccs3)C[C@H]1NC(=O)c1ccccc1C2=O` [CBK284702]: the viability at 28.5 h, 10 µM turned out to be 89.2%.

As for `Cc1cc(NC(=O)c2cccc(C(F)(F)F)c2)nc2c1c(=O)oc1ccccc12` [CBK291163], the viability at 28.5 h, 10 µM came to 101%.

Regarding `Cc1cc(S(=O)(=O)Nc2ccnn2C(C)C)ccc1F` [CBK283069], the viability at 28.5 h, 10 µM is 96.9%.

On to `O=C(c1ccc(S(=O)(=O)N2CCCC2)cc1)N1CCN(C/C=C/c2ccccc2)CC1` [CBK263587], for which the viability at 28.5 h, 10 µM turned out to be 103%.

Regarding `CCCC(=O)N(C)C(CO)c1cc(OC)ccc1Br` (stereo not drawn) [CBK304694], the viability at 28.5 h, 10 µM was found to be 95.4%.

As to `CN1CCN(Cc2c(C3CCCC3)[nH]c3ncccc23)CC1` [CBK285336], the viability at 28.5 h, 10 µM worked out at 88.6%.

On to `Cc1ccc(NC(=O)NC(=O)C2CCN(CCCc3ccc(F)cc3)CC2)cc1Cl` [CBK035057], for which the viability at 28.5 h, 10 µM turned out to be 94.2%.

Turning to `COC(=O)c1ccccc1NC(=O)c1cc2nc(-c3cccs3)cc(C(F)(F)F)n2n1` [CBK262524], the viability at 28.5 h, 10 µM amounted to 88%.

Turning to `Cc1c(NC(=O)CN2CCCC(C)C2)ccc2nsnc12` (stereo not drawn) [CBK269248], the viability at 28.5 h, 10 µM came out at 97.4%.

Consider `O=C(NCCCNc1c(Cl)cccc1[N+](=O)[O-])c1ccc(F)cc1` [CBK264943], for which the viability at 28.5 h, 10 µM amounted to 99.4%.

Turning to `COc1ccc(-c2nnc(SCC(=O)c3ccccc3)o2)cc1` [CBK069390], the viability at 28.5 h, 10 µM was determined as 100%.

As for `CCn1nncc1CNC1CCc2[nH]c3ccc(C)cc3c2C1` (stereo not drawn) [CBK304749], the viability at 28.5 h, 10 µM is 98.3%.

With `O=C(O)c1ccc(N2CCCCS2(=O)=O)cc1Cl` [CBK287142], the viability at 28.5 h, 10 µM came out at 84.5%.

As for `C[C@H](Nc1nc(-c2cccc(C(=O)NCCN(C)C)c2)cnc1N)c1ccccc1` [CBK063714], the viability at 28.5 h, 10 µM is 112%.

In the case of `Cc1cc(Cl)cc(C)c1NS(=O)(=O)c1ccc(N2CCCNCC2)c2ccccc12` [CBK004433C], the viability at 28.5 h, 10 µM worked out at 97.2%.

For `O=P(O)(CCc1ccccc1)CN1CCOCC1` [CBK262305], the viability at 28.5 h, 10 µM came out at 104%.

Turning to `O=C(CN1CCOCC1)Nc1ccc(NC(=O)CN2CCOCC2)cc1` [CBK265045], the viability at 28.5 h, 10 µM came out at 95.9%.

Take `Nc1ncc2ncn([C@H]3C[C@@H](O)[C@@H](CO)O3)c2n1` [CBK201303]: the viability at 28.5 h, 10 µM is 102%.

Turning to `CC(Oc1ccc(/C=N/n2cnnc2)cc1)C(=O)O` (stereo not drawn) [CBK263927], the viability at 28.5 h, 10 µM stood at 82%.

Take `CN(C)c1cccc(-c2ccc(Nc3cccc(NC(=O)c4ccncc4)c3)nc2)c1` [CBK037721]: the viability at 28.5 h, 10 µM turned out to be 58.7%.

Turning to `COC(=O)[C@H]1CN(C(=O)c2cccs2)C[C@@H]1c1ccccc1F` [CBK283775], the viability at 28.5 h, 10 µM came out at 87.4%.

As to `Cn1c(=O)[nH]c(=O)c2c1nc(CN1CCOCC1)n2Cc1ccc(F)cc1` [CBK270040], the viability at 28.5 h, 10 µM is 99.2%.

For the compound `CN(C)c1ccc(-c2[nH][nH]c(=O)c2CCCN)cc1` [CBK288406], the viability at 28.5 h, 10 µM came to 105%.

Regarding `CC(C)(CN)CN(Cc1ccncc1)C(=O)Nc1ccc(C(C)(C)C)cc1` [CBK002459C], the viability at 28.5 h, 10 µM turned out to be 82%.

`CC(C)CC(=O)N1CCN(C(=O)c2ccc(F)cc2)CC1` [CBK003603]: the viability at 28.5 h, 10 µM was 91.1%.

For `CN(c1ccc(C(=O)Nc2ccc(S(=O)(=O)N3CCOCC3)cc2)cc1)S(=O)(=O)c1ccccc1` [CBK264129], the viability at 28.5 h, 10 µM stood at 96.7%.

As to `O=C(NCc1ccc(-c2csnn2)cc1)c1ccc(Oc2ccccc2)cc1` [CBK149300], the viability at 28.5 h, 10 µM came to 108%.

In the case of `O=C(Cc1c[nH]c2ccccc12)N1CCC2(CCCN(C(=O)c3c(F)cccc3F)C2)C1` (stereo not drawn) [CBK131605], the viability at 28.5 h, 10 µM was 85.8%.

Regarding `O=C1c2ccccc2C(=O)N1CC1c2ccccc2CCN1S(=O)(=O)c1cccc2nsnc12` (stereo not drawn) [CBK261133], the viability at 28.5 h, 10 µM is 108%.

For the compound `O=C(c1ccccc1)c1ccc(S(=O)(=O)N2CCN(Cc3ccc(O)c(F)c3)CC2)cc1` [CBK062948], the viability at 28.5 h, 10 µM was found to be 95.8%.

As for `COc1nccnc1-c1ccccc1Cl` [CBK107000], the viability at 28.5 h, 10 µM was found to be 100%.

As for `Cc1cc(NS(=O)(=O)c2ccc(Br)cc2C(F)(F)F)n(C)n1` [CBK067255], the viability at 28.5 h, 10 µM was determined as 107%.

Consider `COc1cccc(-c2nc(SCC(=O)Nc3ccc([N+](=O)[O-])cc3)[nH]c(=O)c2C#N)c1` [CBK264912], for which the viability at 28.5 h, 10 µM came out at 105%.

For the compound `c1ccc2cc(OCc3ccc(-c4nccnc4-c4nnn[nH]4)cc3)ccc2c1` [CBK050818], the viability at 28.5 h, 10 µM worked out at 93.9%.

On to `CC1CCC2(CC1)NC(=O)N(Cc1coc(-c3ccccc3)n1)C2=O` (stereo not drawn) [CBK306196], for which the viability at 28.5 h, 10 µM is 98.3%.

For the compound `CN1CCN(C(=S)c2ccc(OCC(=O)Nc3cccc(C(F)(F)F)c3)cc2)CC1` [CBK266826], the viability at 28.5 h, 10 µM was found to be 92.2%.

For `Cn1c(=O)c2c(nc(CN3CCN(c4ccccc4)CC3)n2Cc2ccccc2)n(C)c1=O` [CBK269557], the viability at 28.5 h, 10 µM is 85.1%.

On to `O=C(NC1CCN(c2nc3cccnc3s2)CC1)c1ccsc1` [CBK304342], for which the viability at 28.5 h, 10 µM was 93%.

As to `CCN1CCN(C(=O)c2nccnc2C(=O)O)CC1` [CBK286718], the viability at 28.5 h, 10 µM amounted to 88.8%.

With `CC1CCCN(c2ncnc3c2[nH]c2ccccc23)C1` (stereo not drawn) [CBK287948], the viability at 28.5 h, 10 µM was found to be 106%.

Consider `COc1ncc(-c2cncc(Nc3ccccc3)n2)c(OC)n1` [CBK065282], for which the viability at 28.5 h, 10 µM turned out to be 100%.

As for `O=C(NCCCN1CCOCC1)NC(=O)c1ccc(Cl)cc1` [CBK269531], the viability at 28.5 h, 10 µM was 96.4%.

For the compound `O=C(NC(n1cnc2c(N3CCCCC3)ncnc21)C(Cl)(Cl)Cl)c1ccccc1` (stereo not drawn) [CBK261038], the viability at 28.5 h, 10 µM worked out at 98.5%.

`CCOC(=O)C1CCN(CCOc2ccc3ccccc3c2)CC1` [CBK270128C]: the viability at 28.5 h, 10 µM is 95.4%.

In the case of `Cn1c(=O)n(CC(=O)NC2CC2)c2cccnc21` [CBK104297], the viability at 28.5 h, 10 µM was found to be 98.7%.

In the case of `COc1ccc(NC(=O)CCSCCC(=O)O)cc1S(=O)(=O)N1CCCCC1` [CBK296655], the viability at 28.5 h, 10 µM is 80.3%.

For the compound `CCCCSc1nnc2nc(C)cc(C)n12` [CBK027588], the viability at 28.5 h, 10 µM is 98.2%.

Turning to `Cc1[nH]nc(-c2ccc(O)c(C)c2O)c1Oc1ccc(F)cc1` [CBK264478], the viability at 28.5 h, 10 µM worked out at 124%.

In the case of `CC(=O)Nc1nc2ccc(S(C)(=O)=O)cc2s1` [CBK287336], the viability at 28.5 h, 10 µM came to 110%.

Consider `Cc1cccc2cc3c(nc12)OCC(=O)N(Cc1ccco1)C3` [CBK283816], for which the viability at 28.5 h, 10 µM was 97.6%.

With `OCC(CNc1ncnc2nc[nH]c12)Cc1ccccn1` (stereo not drawn) [CBK304412], the viability at 28.5 h, 10 µM turned out to be 83.4%.

Turning to `COc1ccc2[nH]cc(CCNC(=O)c3cncnc3)c2c1` [CBK122720], the viability at 28.5 h, 10 µM came to 87.1%.

For `Cc1ncccc1-c1cc2cccnc2n1CCCNC(=O)C1CC1C` (stereo not drawn) [CBK282688], the viability at 28.5 h, 10 µM was 101%.

`COCCN(Cc1ccc(OC)cc1)c1c(C)nc2ccc(C(=O)Nc3ccc(NC(C)=O)cc3)cn12` [CBK146111]: the viability at 28.5 h, 10 µM was determined as 99.3%.

Turning to `Clc1ccc(COc2nccnc2OC2CCN(Cc3ccncc3)CC2)cc1Cl` [CBK153792], the viability at 28.5 h, 10 µM was found to be 107%.

Consider `CCOc1ccc(NC(=O)c2ccc(S(=O)(=O)N(C)C)cc2)c([N+](=O)[O-])c1` [CBK263396], for which the viability at 28.5 h, 10 µM is 90.6%.

With `Cc1cc(=O)oc2cc(Sc3cccc(C(F)(F)F)c3C#N)ccc12` [CBK002914], the viability at 28.5 h, 10 µM was 93.3%.

On to `O=C(O)c1ccc(-n2nnnc2Sc2nc([N+](=O)[O-])nn2Cc2ccccc2F)cc1` [CBK268498], for which the viability at 28.5 h, 10 µM came to 91.5%.

For the compound `Cc1ccc(OCCCCNCCN)c(Br)c1` [CBK265099G], the viability at 28.5 h, 10 µM was found to be 85.1%.

On to `Nc1nc(N)c2cccc(F)c2n1` [CBK025945], for which the viability at 28.5 h, 10 µM is 91.4%.

With `O=C(CSc1ccc2nnc(-c3ccccc3)n2n1)NCc1ccco1` [CBK287514], the viability at 28.5 h, 10 µM stood at 95.6%.

As for `CC(C)(C)c1nc(-c2ccccc2)c2ccccn12` [CBK149256], the viability at 28.5 h, 10 µM is 101%.

On to `CN1CCN(NC(=O)c2cc(-c3cccnc3)nc3ccc(Cl)cc23)CC1` [CBK267729], for which the viability at 28.5 h, 10 µM amounted to 110%.

As for `CN1C(=O)c2ccccc2C(=O)[C@@]2(C)CN(C(=O)c3ccccc3)C[C@@H]12` [CBK281685], the viability at 28.5 h, 10 µM amounted to 93.2%.

Turning to `O=C(CSc1ccc(Cl)cc1)Nc1ccc(S(=O)(=O)N2CCOCC2)cc1` [CBK262723], the viability at 28.5 h, 10 µM came out at 95%.

`CN(Cc1nc(-c2ccncc2)no1)S(=O)(=O)c1ccc(Br)cc1` [CBK268598]: the viability at 28.5 h, 10 µM is 94.6%.

The record behind these values is paper PMC12040169 (PLOS Biology, 2025).
